Experimental data as given in paper PMC11474946, “Role of DNA Double-Strand Break Formation in Gyrase Inhibitor-Mediated Killing of Nonreplicating Persistent Mycobacterium tuberculosis in Caseum” (ACS Infectious Diseases, 2024).

Target: T1, M. tuberculosis gyrase (MTB DNA gyrase) (Mycobacterium tuberculosis, UniProt P9WG45+P9WG47)
T1 construct: gene gyrA
Test: DNA supercoiling inhibition, relaxed pBR322, agarose gel
Format: biochemical
Details: not given

T1 sequence (P9WG47 2-838): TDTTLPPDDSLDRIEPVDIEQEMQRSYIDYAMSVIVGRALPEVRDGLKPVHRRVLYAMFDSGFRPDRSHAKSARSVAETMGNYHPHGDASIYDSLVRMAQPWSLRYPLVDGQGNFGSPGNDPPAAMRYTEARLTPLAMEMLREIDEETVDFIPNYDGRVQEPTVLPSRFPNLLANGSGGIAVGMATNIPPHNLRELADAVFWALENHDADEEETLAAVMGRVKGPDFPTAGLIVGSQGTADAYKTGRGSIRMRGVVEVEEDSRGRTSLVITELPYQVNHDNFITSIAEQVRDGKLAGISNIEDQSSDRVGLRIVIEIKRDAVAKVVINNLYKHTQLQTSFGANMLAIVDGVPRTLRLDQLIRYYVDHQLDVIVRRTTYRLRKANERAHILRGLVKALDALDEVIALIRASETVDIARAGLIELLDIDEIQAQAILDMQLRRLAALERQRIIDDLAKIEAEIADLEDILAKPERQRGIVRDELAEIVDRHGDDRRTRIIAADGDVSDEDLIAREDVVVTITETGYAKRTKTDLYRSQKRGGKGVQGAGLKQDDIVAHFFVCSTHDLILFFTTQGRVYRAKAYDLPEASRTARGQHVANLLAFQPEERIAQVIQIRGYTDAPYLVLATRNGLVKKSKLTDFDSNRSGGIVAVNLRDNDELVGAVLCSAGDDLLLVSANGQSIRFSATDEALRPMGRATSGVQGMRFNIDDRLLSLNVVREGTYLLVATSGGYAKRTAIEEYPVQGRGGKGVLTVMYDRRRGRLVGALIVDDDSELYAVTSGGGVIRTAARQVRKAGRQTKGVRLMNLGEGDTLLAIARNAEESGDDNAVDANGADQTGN
T1 sequence (P9WG45 whole entry): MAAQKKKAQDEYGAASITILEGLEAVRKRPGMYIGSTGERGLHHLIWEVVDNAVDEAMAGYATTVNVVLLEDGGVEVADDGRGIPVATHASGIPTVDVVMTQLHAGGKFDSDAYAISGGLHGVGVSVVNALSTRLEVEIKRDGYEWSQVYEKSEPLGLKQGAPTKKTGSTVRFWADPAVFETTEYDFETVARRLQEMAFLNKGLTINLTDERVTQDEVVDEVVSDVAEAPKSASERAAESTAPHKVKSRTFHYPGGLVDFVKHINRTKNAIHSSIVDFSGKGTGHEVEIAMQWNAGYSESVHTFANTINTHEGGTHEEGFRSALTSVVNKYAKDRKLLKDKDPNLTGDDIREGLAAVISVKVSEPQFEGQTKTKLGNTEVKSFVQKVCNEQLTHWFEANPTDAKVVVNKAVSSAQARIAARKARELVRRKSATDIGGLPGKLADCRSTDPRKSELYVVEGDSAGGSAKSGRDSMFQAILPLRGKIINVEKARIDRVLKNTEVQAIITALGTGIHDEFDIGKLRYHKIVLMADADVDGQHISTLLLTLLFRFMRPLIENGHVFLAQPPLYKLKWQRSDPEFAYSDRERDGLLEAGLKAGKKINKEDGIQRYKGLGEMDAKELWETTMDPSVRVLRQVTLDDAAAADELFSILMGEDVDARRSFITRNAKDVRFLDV

Compared with `N[C@@H]1CN(c2c(F)cc3c(=O)c(C(=O)O)cn([C@@H]4C[C@@H]4F)c3c2Cl)CC12CC2` [Sitafloxacin], `COc1c(N2CCNC(C)C2)c(F)cc2c(=O)c(C(=O)O)cn(C3CC3)c12` (stereo not drawn) [Gatifloxacin] is 5-fold higher in EC50: 1000 nM for the first, 5000 nM for the second.

Going from `C[C@H]1COc2c(N3CCN(C)CC3)c(F)cc3c(=O)c(C(=O)O)cn1c23` [Levofloxacin] to `Nc1nc(-n2cc(C(=O)O)c(=O)c3cc(F)c(N4CC(O)C4)c(Cl)c32)c(F)cc1F` [Delafloxacin], the EC50 rises from 10000 nM to 23000 nM (2.3-fold). The first is the more potent here.

`CCNC(=O)Nc1nc2cc(-c3cnc(C(C)(C)O)nc3)c(F)c([C@H]3CCCO3)c2[nH]1` [SPR719] was tested, and the EC50 was 300 nM.

Same assay, conditions: 37 °C, 30 min, relaxed pBR322

EC/11716 gave an EC50 of 100 nM.
